Experimental data: patent US5420335A, “Parenteral nutrients based on watersoluble glycerol bisacetoacetates” (priority 1993, dated 1995)
“And” between values parts separate entries of the source, which are not always exact repeats. Equal entries are not always repeated. “Also recorded” adds a separate entry of the source.

Legend:
[1] = Daily urinary nitrogen losses of intravenously infused rats; type: in vivo, rat (male Sprague-Dawley); conditions: for Urinary Nitrogen: Table 8, Example 4
Description: (§1) Water was available ad libitum at all times.
(§2) The vein was then ligated dorsally to the catheter. […] Body weights were measured daily.
(§3) Infusate volume, oral food intake, body weight and urinary volume and total nitrogen were monitored daily for each rat. Infusate volume and food intake were determined by weighing the appropriate container at the start and end of each 24 hr. period. Measurements were recorded between 9 and 10 AM each day. At the end of the 7th day, rats were sacrificed, and blood and liver were harvested. Plasma was separated for measurement of free fatty acids, glucose, and ketone bodies. Liver was weighed and a sample was fixed in buffered formalin for gross histology.
(§4) The data were analyzed for significance by the one-way analysis of variance with repeated measures and comparing the effect of dietary treatment on each day. […] The null hypothesis was concluded invalid if p≤0.05. The analysis of variance was computed on a SAS statistical package. […]

[2] = Liver weight after 7 days of infusion; type: in vivo, rat (male Sprague-Dawley); conditions: Table 11, Example 4; for Liver/100 GM: as percentage of body weight; for Liver Wt.: end of day 7
Description: as §3, §4

[3] = Overall evaluation as a parenteral nutrient; type: in vivo, rat (male Sprague-Dawley); conditions: in words
Description: as §1, §2, §3
(§5) The data were analyzed for significance by the one-way analysis of variance with repeated measures and comparing the effect of dietary treatment on each day. […] The null hypothesis was concluded invalid if p≤0.05. The analysis of variance was computed on a SAS statistical package.

[4] = Mortality and gross toxicity on intravenous infusion; conditions: in words; conclusion
Description: as §1, §2

[5] = Oral dietary nitrogen (food) intake of intravenously infused rats; type: in vivo, rat (male Sprague-Dawley); conditions: Table 7, Example 4, oral only
[6] = Daily body weight of intravenously infused rats; type: in vivo, rat (male Sprague-Dawley); conditions: for Daily Body Weight: Table 10, Example 4
Description: as §1, §2, §3, §5
(§6) This compound has an estimated energy density of 4.86 kcal/gram based on thermodynamic data from similar compounds.

[7] = Plasma free fatty acids, glucose and ketone bodies after 7 days of infusion; type: in vivo, rat (male Sprague-Dawley); conditions: for ACAC / BOHB / Glucose / Total FFA: Table 11, Example 4
Description: as §3, §5

[8] = Oral dietary nitrogen (food) intake of intravenously infused rats; type: in vivo, rat (male Sprague-Dawley); conditions: in words
Description: as §1, §2, §3, §5, §6

[9] = Nitrogen balance (difference between intake and urinary output); type: in vivo, rat (male Sprague-Dawley); conditions: for Nitrogen Balance, Difference Between Intake And Output: average of 9 rats
Description: as §1, §2, §3, §5
FIG. 3 illustrates the difference between oral intake and urinary nitrogen output which is termed nitrogen balance. It is representative of nitrogen balance because urinary nitrogen is the major route for body loss of nitrogen.
The experimental compound contains 8% nitrogen. With an infusion of 5.6 grams/day, infused nitrogen would provide approximately 450 mg more than that listed in the data tables. The final balance figures includes this number which is calculated based on the actual daily infusion rate for each rat.

CC(=O)CC(=O)NCC(O)CO (centres unmarked) [Compound 2, 1-acetoacetamido-2,3-propane diol]
Urinary Nitrogen ([1]; day 1, average of 9 rats): 477 mg | Urinary Nitrogen ([1]; day 1, individual rat): 562.1 mg and 483.2 mg and 380.8 mg and 411.4 mg and 401.7 mg and 527.6 mg and 477.8 mg and 509.6 mg and 536.4 mg | Urinary Nitrogen ([1]; day 2, average of 9 rats): 550 mg | Urinary Nitrogen ([1]; day 2, individual rat): 661.5 mg and 542.5 mg and 499.8 mg and 464 mg and 462.84 mg and 583.3 mg and 486 mg and 528 mg and 718.2 mg | Urinary Nitrogen ([1]; day 3, average of 9 rats): 576 mg | Urinary Nitrogen ([1]; day 3, individual rat): 671.9 mg and 704.1 mg and 548.1 mg and 413.8 mg and 619.3 mg and 603.8 mg and 315.2 mg and 622.2 mg and 682.4 mg | Urinary Nitrogen ([1]; day 4, average of 9 rats): 531 mg | Urinary Nitrogen ([1]; day 4, individual rat): 559.8 mg and 477.4 mg and 468.3 mg and 385 mg and 499.7 mg and 603.7 mg and 494.3 mg and 614.8 mg and 674.2 mg | Urinary Nitrogen ([1]; day 5, average of 9 rats): 479 mg | Urinary Nitrogen ([1]; day 5, individual rat): 599 mg and 456 mg and 434.3 mg and 300.2 mg and 365.9 mg and 503.5 mg and 525.1 mg and 552.9 mg and 572.3 mg | Urinary Nitrogen ([1]; day 6, average of 9 rats): 548 mg | Urinary Nitrogen ([1]; day 6, individual rat): 569 mg and 659.4 mg and 440.8 mg and 286.1 mg and 545.2 mg and 538.5 mg and 608.2 mg and 599 mg and 686.7 mg | Urinary Nitrogen ([1]; day 7, average of 9 rats): 567 mg | Urinary Nitrogen ([1]; day 7, individual rat): 602 mg and 613.5 mg and 519.4 mg and 81.4 mg and 588.3 mg and 633.1 mg and 678 mg and 683.9 mg and 706.8 mg | urinary nitrogen losses ([1]; in words, 7 days): reflects the greater nitrogen intake by rats infused with the experimental compound | Liver/100 GM ([2]; average): 3.891 | Liver/100 GM ([2]; individual rat): 3.621 and 5.165 and 3.928 and 3.739 and 4.018 and 3.066 and 4.304 and 3.228 and 3.95 | Liver Wt. ([2]; average): 8.842 | Liver Wt. ([2]; individual rat): 9.0537 and 11.2604 and 9.1128 and 7.3291 and 9.3228 and 7.2672 and 9.4265 and 7.4879 and 9.3213 | efficacy as parenteral nutrient / energy source [3]: not a good source of energy | efficacy as parenteral nutrient / energy source ([3]; listed as 1-acetoacetamido-2,3-propane diol): ineffective as parenteral nutrients | lethality [4]: not acutely nor chronically lethal | Dietary Nitrogen Intake ([5]; day 1, average of 9 rats): 279 MG N | Dietary Nitrogen Intake ([5]; day 1, individual rat): 513.24 MG N and 92.12 MG N and 164.5 MG N and 138.18 MG N and 171.08 MG N and 493.5 MG N and 440.86 MG N and 355.32 MG N | Dietary Nitrogen Intake ([5]; day 2, average of 9 rats): 376 MG N | Dietary Nitrogen Intake ([5]; day 2, individual rat): 532.98 MG N and 256.62 MG N and 526.4 MG N and 59.22 MG N and 282.94 MG N and 506.66 MG N and 263.2 MG N and 447.44 MG N | Dietary Nitrogen Intake ([5]; day 3, average of 9 rats): 429 MG N | Dietary Nitrogen Intake ([5]; day 3, individual rat): 532.98 MG N and 407.96 MG N and 546.14 MG N and 118.44 MG N and 506.66 MG N and 500.08 MG N and 210.56 MG N and 513.24 MG N and 526.4 MG N | Dietary Nitrogen Intake ([5]; day 4, average of 9 rats): 388 MG N | Dietary Nitrogen Intake ([5]; day 4, individual rat): 480.34 MG N and 263.2 MG N and 473.76 MG N and 65.8 MG N and 296.1 MG N and 519.82 MG N and 355.32 MG N | Dietary Nitrogen Intake ([5]; day 5, average of 9 rats): 369 MG N | Dietary Nitrogen Intake ([5]; day 5, individual rat): 480.34 MG N and 427.7 MG N and 355.32 MG N and 0 MG N and 52.64 MG N and 500.08 MG N and 519.82 MG N and 506.66 MG N | Dietary Nitrogen Intake ([5]; day 6, average of 9 rats): 434 MG N | Dietary Nitrogen Intake ([5]; day 6, individual rat): 526.4 MG N and 421.12 MG N and 388.22 MG N and 0 MG N and 519.82 MG N and 500.08 MG N and 513.24 MG N and 506.66 MG N | Dietary Nitrogen Intake ([5]; day 7, average of 9 rats): 466 MG N | Dietary Nitrogen Intake ([5]; day 7, individual rat): 526.4 MG N and 546.14 MG N and 506.66 MG N and 0 MG N and 532.98 MG N and 519.82 MG N | Daily Body Weight ([6]; day 0, average of 9 rats): 244 Grams | Daily Body Weight ([6]; day 0, individual rat): 247 Grams and 223 Grams and 252 Grams and 251 Grams and 259 Grams and 236 Grams and 243 Grams and 237 Grams | Daily Body Weight ([6]; day 1, average of 9 rats): 234 Grams | Daily Body Weight ([6]; day 1, individual rat): 243 Grams and 207 Grams and 240 Grams and 230 Grams and 244 Grams and 242 Grams and 227 Grams and 239 Grams and 237 Grams | Daily Body Weight ([6]; day 2, average of 9 rats): 234 Grams | Daily Body Weight ([6]; day 2, individual rat): 247 Grams and 205 Grams and 239 Grams and 227 Grams and 243 Grams and 230 Grams and 235 Grams and 237 Grams | Daily Body Weight ([6]; day 3, average of 9 rats): 234 Grams | Daily Body Weight ([6]; day 3, individual rat): 251 Grams and 204 Grams and 238 Grams and 223 Grams and 240 Grams and 243 Grams and 235 Grams and 233 Grams | Daily Body Weight ([6]; day 4, average of 9 rats): 233 Grams | Daily Body Weight ([6]; day 4, individual rat): 255 Grams and 199 Grams and 234 Grams and 208 Grams and 235 Grams and 233 Grams and 244 Grams | Daily Body Weight ([6]; day 5, average of 9 rats): 236 Grams | Daily Body Weight ([6]; day 5, individual rat): 253 Grams and 246 Grams and 234 Grams and 212 Grams and 230 Grams and 241 Grams and 236 Grams and 237 Grams | Daily Body Weight ([6]; day 6, average of 9 rats): 235 Grams | Daily Body Weight ([6]; day 6, individual rat): 251 Grams and 242 Grams and 233 Grams and 204 Grams and 243 Grams and 248 Grams and 232 Grams and 231 Grams | Daily Body Weight ([6]; day 7, average of 9 rats): 228 Grams | Daily Body Weight ([6]; day 7, individual rat): 250 Grams and 218 Grams and 232 Grams and 196 Grams and 237 Grams and 219 Grams and 236 Grams | change in body weight ([6]; in words, 7 days): held relatively constant until the final day when they lose weight; also recorded: did not lose weight nor did they gain | ACAC ([7]; plasma, average): 0.195 mmol/L | BOHB ([7]; plasma, average): 0.897 mmol/L | Glucose ([7]; plasma, average): 108.589 mg/dL | Total FFA ([7]; plasma, average): 0.580 mmol/L | ACAC ([7]; plasma, individual rat): 0.0958 mmol/L and 0.1231 mmol/L and 0.1385 mmol/L and 0.1032 mmol/L and 0.3378 mmol/L and 0.0999 mmol/L and 0.3415 mmol/L and 0.3225 mmol/L | BOHB ([7]; plasma, individual rat): 0.8481 mmol/L and 0.9004 mmol/L and 0.2501 mmol/L and 1.13 mmol/L and 0.8685 mmol/L and 1.3611 mmol/L and 0.5709 mmol/L and 1.163 mmol/L and 0.9826 mmol/L | Glucose ([7]; plasma, individual rat): 109.8 mg/dL and 105.2 mg/dL and 112.1 mg/dL and 111.4 mg/dL and 121 mg/dL and 91.1 mg/dL and 132.1 mg/dL and 114.6 mg/dL and 80 mg/dL | Total FFA ([7]; plasma, individual rat): 0.306 mmol/L and 0.472 mmol/L and 0.376 mmol/L and 1.408 mmol/L and 0.546 mmol/L and 0.651 mmol/L and 0.286 mmol/L and 0.676 mmol/L and 0.498 mmol/L | blood / plasma glucose ([7]; in words, end of day 7): low blood glucose | ketone bodies ([7]; in words, plasma, end of day 7): absence of elevated plasma acetoacetate; also recorded: neither of the ketone bodies were elevated when compared to the saline infused rats | appetite depression ([8]; Example 4): did not depress the rats appetite | differences in dietary nitrogen intake among the three groups ([8]; vs saline and other groups, 7 days): no differences in dietary nitrogen intake among the three groups | Nitrogen Balance, Difference Between Intake And Output ([9]; Table 9, Example 4, infused nitrogen not considered, day 1): -198 mg N | Nitrogen Balance, Difference Between Intake And Output ([9]; Table 9, Example 4, infused nitrogen not considered, day 2): -173 mg N | Nitrogen Balance, Difference Between Intake And Output ([9]; Table 9, Example 4, infused nitrogen not considered, day 3): -146 mg N | Nitrogen Balance, Difference Between Intake And Output ([9]; Table 9, Example 4, infused nitrogen not considered, day 4): -142 mg N | Nitrogen Balance, Difference Between Intake And Output ([9]; Table 9, Example 4, infused nitrogen not considered, day 5): -109 mg N | Nitrogen Balance, Difference Between Intake And Output ([9]; Table 9, Example 4, infused nitrogen not considered, day 6): -114 mg N | Nitrogen Balance, Difference Between Intake And Output ([9]; Table 9, Example 4, infused nitrogen not considered, day 7): -101 mg N | Nitrogen Balance, Difference Between Intake And Output ([9]; Table 9A, Example 4, infused nitrogen included, day 1): 256 mg N | Nitrogen Balance, Difference Between Intake And Output ([9]; Table 9A, Example 4, infused nitrogen included, day 2): 258 mg N | Nitrogen Balance, Difference Between Intake And Output ([9]; Table 9A, Example 4, infused nitrogen included, day 3): 361 mg N | Nitrogen Balance, Difference Between Intake And Output ([9]; Table 9A, Example 4, infused nitrogen included, day 4): 302 mg N | Nitrogen Balance, Difference Between Intake And Output ([9]; Table 9A, Example 4, infused nitrogen included, day 5): 317 mg N | Nitrogen Balance, Difference Between Intake And Output ([9]; Table 9A, Example 4, infused nitrogen included, day 6): 299 mg N | Nitrogen Balance, Difference Between Intake And Output ([9]; Table 9A, Example 4, infused nitrogen included, day 7): 336 mg N | nitrogen balance ([9]; in words, 7 days): negative nitrogen balance if nitrogen content of the compound is not considered
